# Reference: patent US7772221B2, “Diaminopropane derived macrocycles as inhibitors of β amyloid production” (Bristol-Meyers Squibb Company, priority 2007, dated 2010)
# Biological target: T1, BACE1 enzyme (Homo sapiens, UniProt P56817)
# T1 construct: endogenous in cells; washed 48,000 x g membrane pellet / cell homogenate
# Assay: Radioligand displacement assay with a radiolabeled BACE inhibitor
# Format: binding
# Details: HEK293-9B.A1 cell homogenate overexpressing BACE1, 1 nM radioligand, pH 5.0, 1.5 hr at 25° C.; read-out: Activity Rating (activity based on IC50 values)
# Source text: There are a number of methods by which inhibitors of the BACE enzyme can be identified experimentally. The enzyme can be obtained from membrane samples from natural tissues or cultured cells or can be expressed recombinantly in a host cell by well known methods of molecular biology. The whole enzyme or a portion thereof can be expressed, for example, in bacterial, insect or mammalian cells to obtain a catalytically active enzyme species. The enzymatic activity and/or ligand binding capability of the enzyme can be assessed within these membrane samples, or the enzyme can be purified to varying extents. As an illustrative example, the nucleic acid sequence encoding the pro and catalytic domains of human BACE can be appended on the 5′ end with an untranslated and signal sequence from the gene for acetylcholinesterase, and on the 3′ end with a sequence encoding a poly-histidine tag. This cDNA can then be expressed in Drosophila melanogaster S2 cells in which the signal and pro sequences of the transcribed/translated protein are removed by cellular proteases and the catalytic domain, appended by a C-terminal poly-histidine tag, is secreted out into the cellular medium. The enzyme can then be purified from the culture medium by nickel affinity chromatography by methods well known to those trained in the art [Mallender, W. et al., “Characterization of recombinant, soluble beta-secretase from an insect cell expression system.” Mol. Pharmacol. 2001, 59: 619-626]. Similar strategies for expressing and purifying various forms of BACE in bacterial, mammalian and other cell types would be known to one skilled in the art. A preferred method for determining the potency of a test compound in binding to the BACE enzyme is by monitoring the displacement of a suitable radioligand.
# Radioligand displacement assays with a radiolabeled BACE inhibitor (WO 2004 013098, compound 3, where the methoxy group is substituted for C(^3H)3) were carried out using standard methods (Keen, M. (1999) in Receptor Binding Techniques (Walker, J. M. ed) p. 106 Humana Press, Totowa, N.J.). The HEK293-9B.A1 cell line, which overexpresses the BACE1 enzyme, was derived from HEK293 cells (Simmons, N. L. (1990) A cultured human renal epithelioid cell line responsive to vasoactive intestinal peptide. Exp. Physiol. 75:309-19.) by RAGE™ (Harrington, J. J. et al. (2001) Creation of genome-wide protein expression libraries using random activation of gene expression. Nat. Biotechnol. 19:440-5.; U.S. Pat. Nos. 6,410,266 and 6,361,972). T225 flask cultures of HEK293-9B.A1 were grown to 80% confluency in DMEM supplemented with 2 mM L-glutamine, 10 μg/mL penicillin, 10 μg/mL streptomycin, 3 μg/mL puromycin, 100 nM methotrexate, and 10% fetal bovine serum (Invitrogen, Carlsbad, Calif.), harvested, and resuspended at 2×10^8 cells per 10 mL of lysis buffer consisting of 50 mM HEPES pH 7.0 containing a protease inhibitor cocktail of AEBSF 104 μM, aprotinin 80 nM, leupeptin 2 μM, bestatin 4 μM, pepstatin A 1.5 μM, and E-64 1.4 μM (0.1% of protease inhibitor cocktail P8340, Sigma-Aldrich, St. Louis, Mo.) at 4° C. The resuspended cells were homogenized using a Polytron (Brinkman, Westbury, N.Y.) at setting 6 for 10 sec., then centrifuged at 48,000×g for 10 min. The resulting pellet was washed by repeating the resuspension, homogenization and centrifugation steps. The final pellet was resuspended in buffer at 4° C. to yield a total protein concentration of 5 mg/mL, then aliquots were frozen in liquid nitrogen for further storage at −70° C. Immediately before carrying out a binding assay, an aliquot of cell homogenate was thawed and diluted to a concentration of 100 μg/mL in assay buffer consisting of 50 mM HEPES pH 5.0 and 0.1% CHAPSO. […]
# T1 sequence (P56817 46-501): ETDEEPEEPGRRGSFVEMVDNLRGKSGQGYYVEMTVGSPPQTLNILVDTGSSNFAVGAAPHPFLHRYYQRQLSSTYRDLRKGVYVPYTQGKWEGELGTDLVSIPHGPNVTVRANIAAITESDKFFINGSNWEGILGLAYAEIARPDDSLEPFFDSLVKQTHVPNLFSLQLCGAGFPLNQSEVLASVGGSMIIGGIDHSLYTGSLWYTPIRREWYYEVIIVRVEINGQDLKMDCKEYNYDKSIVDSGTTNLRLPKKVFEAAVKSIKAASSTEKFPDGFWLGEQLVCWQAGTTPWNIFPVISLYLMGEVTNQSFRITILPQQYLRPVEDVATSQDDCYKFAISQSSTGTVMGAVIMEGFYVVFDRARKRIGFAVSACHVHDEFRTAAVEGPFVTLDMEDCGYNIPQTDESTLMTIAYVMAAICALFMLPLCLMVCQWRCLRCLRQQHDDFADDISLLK
row,Structure (SMILES),IC50 [µM]
1,"CCCC[C@H](C)C(=O)N(C)[C@H]1CC=CCO[C@H]2CC[C@H](C2)NC[C@@H](O)[C@H](Cc2cc(F)cc(F)c2)NC1=O (racemic) [Example 25, (S)-2-methyl-hexanoic acid [(1R,4R,5S,8S,14S)-5-(3,5-difluoro-benzyl)-4-hydroxy-7-oxo-13-oxa-2,6-diaza-bicyclo[12.2.1]heptadec-10-en-8-yl]-methyl-amide and (S)-2-methyl-hexanoic acid [(1S,4R,5S,8S,14R)-5-(3,5-difluoro-benzyl)-4-hydroxy-7-oxo-13-oxa-2,6-diaza-bicyclo[12.2.1]heptadec-10-en-8-yl]-methyl-amide]",0.01 to 0.5
2,"CCCCCS(=O)(=O)N(C)[C@H]1CC=CCO[C@@H]2Cc3ccc(OC)cc3[C@H]2NC[C@@H](O)[C@H](Cc2ccccc2)NC1=O (racemic) [Example 26, pentane-1-sulfonic acid ((1R,7S,10S,11R,14R)-10-benzyl-11-hydroxy-17-methoxy-8-oxo-2-oxa-9,13-diaza-tricyclo[12.7.0.0^15,20]henicosa-4,15(20),16,18-tetraen-7-yl)-methyl-amide and pentane-1-sulfonic acid ((1S,7S,10S,11R,14S)-10-benzyl-11-hydroxy-17-methoxy-8-oxo-2-oxa-9,13-diaza-tricyclo[12.7.0.0^15,20]henicosa-4,15(20),16,18-tetraen-7-yl)-methyl-amide]",> 0.5
3,"COc1ccc2c(c1)[C@@H]1C[C@H]2NCCCC[C@H](N(C)S(=O)(=O)CCC(F)(F)F)C(=O)N[C@@H](Cc2ccccc2)[C@H](O)CN1 (single isomer, unassigned) [Example 52]",0.01 to 0.5
4,"COc1ccc2c(c1)[C@@H]1C[C@H]2OCC=CC[C@H](N(C)C(=O)C(C)CC(F)(F)F)C(=O)N[C@@H](Cc2cc(F)cc(F)c2)[C@H](O)CN1 (single isomer, unassigned; diastereomer a) [Example 21]",< 0.01
5,"COc1ccc2c(c1)[C@@H]1C[C@H]2COCC=CC[C@H](N(C)S(=O)(=O)CCC(F)(F)F)C(=O)N[C@@H](Cc2ccccc2)[C@H](O)CN1 (single isomer, unassigned; isomer a) [Example 35]",< 0.01
6,"CCCC[C@H]1CC=CCO[C@@H]2C[C@H](NC[C@@H](O)[C@H](Cc3cc(F)cc(F)c3)NC1=O)c1cc(OC)ccc12 [Example 8, (1S,4R,5S,8S,14R)-8-butyl-5-(3,5-difluoro-benzyl)-4-hydroxy-18-methoxy-13-oxa-2,6-diaza-tricyclo[12.6.1.0^15,20]henicosa-10,15(20),16,18-tetraen-7-one]",> 0.5
7,"CCCC[C@H](C)C(=O)N(C)[C@H]1CC=CCOC[C@@H](c2ccccc2)NC[C@@H](O)[C@H](Cc2cc(F)cc(F)c2)NC1=O [Example 18, (S)-2-methyl-hexanoic acid [(3R,6R,7S,10S)-7-(3,5-difluoro-benzyl)-6-hydroxy-9-oxo-3-phenyl-1-oxa-4,8-diaza-cyclotetradec-12-en-10-yl]-methyl-amide]",> 0.5
8,"CCCC(CCC)C(=O)N(C)[C@H]1CC=CCOCCC(c2cccc(OC)c2)NC[C@@H](O)[C@H](Cc2ccccc2)NC1=O (stereo partly drawn) [Example 19, N-((7R,8S,11S)-8-benzyl-7-hydroxy-4-(3-methoxyphenyl)-10-oxo-1-oxa-5,9-diazacyclopentadec-13-en-11-yl)-N-methyl-2-propylpentanamide]",> 0.5
9,"CCOc1ccsc1C(=O)N(C)[C@H]1CC=CCO[C@@H]2C[C@H](NC[C@@H](O)[C@H](Cc3ccccc3)NC1=O)c1cc(OC)ccc12 [Example 20, 3-ethoxy-thiophene-2-carboxylic acid ((1S,4R,5S,8S,14R)-5-benzyl-4-hydroxy-18-methoxy-7-oxo-13-oxa-2,6-diaza-tricyclo[12.6.1.0^15,20]henicosa-10,15(20),16,18-tetraen-8-yl)-methyl-amide]",0.01 to 0.5
10,"CCCCCS(=O)(=O)N(C)[C@H]1CCCCO[C@H]2Cc3ccc(OC)cc3[C@H]2NC[C@@H](O)[C@H](Cc2ccccc2)NC1=O [Example 29, pentane-1-sulfonic acid ((1S,7S,10S,11R,14R)-10-benzyl-11-hydroxy-17-methoxy-8-oxo-2-oxa-9,13-diaza-tricyclo[12.7.0.0^15,20]henicosa-15(20),16,18-trien-7-yl)-methyl-amide]",0.01 to 0.5
11,CCCCCS(=O)(=O)N(C)[C@H]1CC=CCO[C@@H]2C[C@H](NC[C@@H](O)[C@H](Cc3cc(Cl)cc(Cl)c3)NC1=O)c1cc(OC)ccc12 [Example 43],< 0.01
12,"CCCC[C@H](C)C(=O)N(C)[C@H]1CCCCO[C@@H]2C[C@H](NC[C@@H](O)[C@H](Cc3cc(Cl)cc(Cl)c3)NC1=O)c1cc(OC)ccc12 [Example 49, (S)-2-methyl-hexanoic acid ((1S,4R,5S,8S,14R)-5-(3,5-dichloro-benzyl)-4-hydroxy-18-methoxy-7-oxo-13-oxa-2,6-diaza-tricyclo[12.6.1.0^15,20]henicosa-15(20),16,18-trien-8-yl)-methyl-amide]",< 0.01
13,"COc1ccc2c(c1)[C@@H]1CC2N(C)CCCCC[C@H](N(C)S(=O)(=O)CCC(F)(F)F)C(=O)N[C@@H](Cc2ccccc2)[C@H](O)CN1 [Example 56, 3,3,3-trifluoro-propane-1-sulfonic acid ((1S,4R,5S,8S)-5-benzyl-4-hydroxy-19-methoxy-14-methyl-7-oxo-2,6,14-triaza-tricyclo[13.6.1.0^16,21]docosa-16(21),17,19-trien-8-yl)-methyl-amide]",0.01 to 0.5
14,"CN([C@H]1CCC=CCO[C@@H]2C[C@H](NC[C@@H](O)[C@H](Cc3ccccc3)NC1=O)c1cc(Br)ccc12)S(=O)(=O)CCC(F)(F)F [Example 61, 3,3,3-trifluoro-propane-1-sulfonic acid ((1S,4R,5S,8S,15R)-5-benzyl-19-bromo-4-hydroxy-7-oxo-14-oxa-2,6-diaza-tricyclo[13.6.1.0^16,21]docosa-11,16(21),17,19-tetraen-8-yl)-methyl-amide]",< 0.01
15,"CC(C)CCc1ccc2c(c1)[C@@H]1C[C@H]2OCC=CCCCC(=O)N[C@@H](Cc2cc(F)cc(F)c2)[C@H](O)CN1 [Example 69, (1S,4R,5S,15R)-5-(3,5-difluoro-benzyl)-4-hydroxy-19-(3-methyl-butyl)-14-oxa-2,6-diaza-tricyclo[13.6.1.0^16,21]docosa-11,16(21),17,19-tetraen-7-one]",0.01 to 0.5
16,"COc1ccc2c(c1)[C@@H]1C[C@H]2OCC=CCC[C@H](N(C)S(=O)(=O)CCC(F)(F)F)C(=O)N[C@@H](CC(C)C)[C@H](O)CN1 [Example 70, 3,3,3-trifluoro-propane-1-sulfonic acid ((1S,4R,5S,8S,15R)-4-hydroxy-5-isobutyl-19-methoxy-7-oxo-14-oxa-2,6-diaza-tricyclo[13.6.1.0^16,21]docosa-11,16(21),17,19-tetraen-8-yl)-methyl-amide]",< 0.01
17,"CC(C)Oc1ccc2c(c1)[C@@H]1C[C@H]2OCC=CCCCC(=O)N[C@@H](Cc2cc(F)cc(F)c2)[C@H](O)CN1 [Example 78, (1S,4R,5S,15R)-5-(3,5-difluoro-benzyl)-4-hydroxy-19-isopropoxy-14-oxa-2,6-diaza-tricyclo[13.6.1.0^16,21]docosa-11,16(21),17,19-tetraen-7-one]",< 0.01
18,"CC(C)C[C@@H]1NC(=O)CCCC=CCO[C@@H]2C[C@H](NC[C@H]1O)c1cc(OC(C)C)ccc12 [Example 79, (1S,4R,5S,15R)-4-hydroxy-5-isobutyl-19-isopropoxy-14-oxa-2,6-diaza-tricyclo[13.6.1.0^16,21]docosa-11,16(21),17,19-tetraen-7-one]",> 0.5
